Reference: patent US20240352053A1, “SALT AND CRYSTAL FORM OF EGFR INHIBITOR, AND COMPOSITION AND USE THEREOF” (BETTA PHARMACEUTICALS CO., LTD, priority 2021, published 2024)
Read-outs that look alike come from different tables or passages of the source. Blank lines part the entries; values can stand above or below the compound they belong to.

Key:
[1] = Pharmacokinetic test, oral administration in male SD rats; assay type: in vivo, rat; settings: plasma, 50 mg/kg, distilled water
Experimental: Male SD rats purchased from Beijing Weitonglihua Experimental Animal Technology Co Ltd. were used for oral administration PK studies. The dose was 50 mg/kg, the preparation was distilled water, and the compound concentrations corresponding to the test compounds were 5 mg/mL, ready for use. Oral administration is by oral gavage at 10 mL/kg. Blood was collected through the rat orbital venous plexus, and […] was taken at each time point into an EDTA anticoagulant tube. The blood collection time is: 15 min, 30 min, 1 h, 2 h, 4 h, 7 h, 24 h, 30 h, 48 h, centrifuge at 4000 rpm for 10 min, take the supernatant to obtain 100 μL plasma, and store it in a −80° C. refrigerator, spare. After precipitating the protein from the above plasma sample with acetonitrile, take the supernatant and mix it with water 1:1, and take 10 μL for LC-MS/MS detection.

Ba/F3 EGFR WT cells = settings: 72 hours, CTG; data recorded in PCT/CN2021/075994; read-out: BaF3 EGFR WT IC50; cited from earlier work
[2] = test system: Ba/F3-Δ19del/T790M/C797S cells; settings: 72 hours, CTG; data recorded in PCT/CN2021/075994; read-out: Ba/F3/EGFR Δ19del/T790M/C797S IC50; cited from earlier work
[3] = test system: human epidermal cancer cell A431 carrying EGFR WT; settings: 72 hours, CTG; data recorded in PCT/CN2021/075994; cited from earlier work
[4] = Measurement of crystal form stability (HPLC chemical purity, XRPD); assay type: physicochemical; settings: for Chemical purity (%) 0 days: HPLC
Experimental: The X-ray powder diffraction pattern detection equipment and method of the present invention are as shown in the X-ray powder diffraction table in the instrument and analysis method. After the test compounds are placed under different temperature, humidity and light conditions for a period of time, the purity is tested. Purity testing method: Use high-performance liquid chromatography (HPLC) to detect the chemical purity of this product. Determine according to high performance liquid chromatography (“Chinese Pharmacopoeia” 2020 edition, Part IV, General Chapter 0512). […] XRPD characterization was performed on the samples after being placed under different temperature, humidity and light conditions for a period of time.

[5] = DVS test (dynamic vapor sorption); assay type: physicochemical
Source text: Take crystal form A of the compound represented by Formula III for DVS measurement, and the obtained DVS spectrum is shown in FIG. 5-2.

AUC(0-t) ([1]; male, SD, rat, po): 27400 ng·h/mL
Cmax ([1]; male, SD, rat, po, read-out: Cmax): 1990 ng/mL
SMILES: COc1cc(N2CCC(N3CCN(C)CC3)CC2)c(C)cc1Nc1ncc(Br)c(Nc2ccc3nc(C4CC4)ccc3c2P(C)(C)=O)n1.O=C(O)C[C@H](O)C(=O)O

SMILES: COc1cc(N2CCC(N3CCN(C)CC3)CC2)c(C)cc1Nc1ncc(Br)c(Nc2ccc3nc(C4CC4)ccc3c2P(C)(C)=O)n1 [(6-((5-bromo-2-((2-methoxy-5-methyl-4-(4-(4-methylpiperazin-1-yl))piperidin-1-yl)phenyl)amino)pyrimidin-4-yl)amino)-2-cyclopropylquinolin-5-yl)dimethylphosphine oxide]
IC50 (Ba/F3 EGFR WT cells): 151 nM
IC50 [2]: 6.8 nM
IC50 [3]: 1130 nM

SMILES: CCc1cc(Nc2ncc(Br)c(Nc3ccc4ncccc4c3P(C)(C)=O)n2)c(OC)cc1N1CCC(N2CCN(C)CC2)CC1 [Control Example 1, reference compound]
IC50 (Ba/F3 EGFR WT cells): 39.9 nM
IC50 [2]: 9 nM
IC50 [3]: 245 nM

AUClast [1]: 47593 ng·h/mL
Cmax [1]: 2557 ng/mL
Chemical purity (%) 0 days [4]: 98.85%
Chemical purity (%) 60° C. ([4]; 60° C., placement time 13 days): 98.80%
Chemical purity (%) 92.5% RH ([4]; placement time 13 days): 98.98%
Chemical purity (%) 4500 lx illumination ([4]; placement time 13 days): 98.83%
hygroscopic weight gain ([5]; 25° C./80% RH): about 3.43%
sample weight after placement in DVS ([5]; 25° C./80% RH for 24 hours): remained basically unchanged
crystal form after placement in DVS ([5]; 25° C./80% RH, after 24 hours): did not change
crystal form before and after the DVS test ([5]; DVS, 25° C.): does not change
SMILES: COc1cc(N2CCC(N3CCN(C)CC3)CC2)c(C)cc1Nc1ncc(Br)c(Nc2ccc3nc(C4CC4)ccc3c2P(C)(C)=O)n1.O=C(O)C[C@H](O)C(=O)O [Crystal form A of the compound represented by formula III]

Chemical purity (%) 0 days [4]: 99.59%
Chemical purity (%) 92.5% RH ([4]; placement time 10 days): 99.59%
Chemical purity (%) 4500 lx illumination ([4]; placement time 10 days): 96.05%
SMILES: COc1cc(N2CCC(N3CCN(C)CC3)CC2)c(C)cc1Nc1ncc(Br)c(Nc2ccc3nc(C4CC4)ccc3c2P(C)(C)=O)n1.O=C(O)C[C@H](O)C(=O)O [Crystal form J of the compound represented by formula III]
